# Assays:
# neutrophils = experiment: Neutrophil activation: CD16 surface marker fluorescence (channel 2 FL2-A); type: cell-based, human
# Excerpt: Dead cells were gated and removed using PI(+) viability marker. The cell surface marker CD33 was used to distinguish the lymphocyte population from the monocyte and granulocyte populations. The cell surface marker CD16 was used to distinguish neutrophil and eosinophil populations from the monocytes and lymphocyte populations. The cell surface marker CD123 was used to distinguish the basophil population. Activated granulocytes were observed using the granulocyte activation surface marker CD63(+). Activated basophil and eosinophil populations were observed using surface markers […], in-tandem with CD63(+). Activated basophils were observed using the surface marker profile of CD63(+)/CD203c(+). Activated eosinophils were observed using the surface marker profile of CD63(+)/CD193(+)/CD203c(+). Activated neutrophils were observed using the surface marker profile of CD63(+)/CD193(−)/CD203(−). Activation of subpopulations was quantified as fold-change compared to the mean of the negative control samples.
# Activation of neutrophils from human blood samples following exposure to exogenous stimulants was investigated using flow cytometry analysis of R123 fluorescence, as well as cell surface markers CD16, CD193, and CD123, and side scattering profiles. Density plots for RH 123 (channel 1; FL1-A), CD16 (channel 2; FL2-A), CD193 (channel 3, FL3-A), and CD123 (channel 4, FL4-A) following exposure to dust mite stimulant for 1.5 hours are shown in FIGS. 19A-19L (DHR 123 only: FIGS. 19A-19D; DHR 123+PMA stimulant: FIGS. 19E-19H; and DHR 123+DM stimulant: FIGS. 19I-19L). […] Histograms of CD16 fluorescence at 1.5 hours after stimulant exposure are shown in FIGS. 20A-20C (DHR 123 control: FIG. 20A, MFI=27956; DHR 123+PMA stimulant: FIG. 20B, MFI=11120; and DHR 123+DM stimulant: FIG. 20C, MFI=16358). […]
# white blood cells = experiment: Propidium iodide (PI) staining by flow cytometry, channel 3 FL3-A; type: cell-based, human
# Protocol: Cell viability determination using DNA staining was incorporated to improve flow cytometry analysis of granulocyte subpopulations. […] Throughout Example 2, additional exogenous stimulants were tested for their ability to instigate granulocyte release of ROS.
# Flow cytometry analysis of human blood samples was performed following exposure to exogenous dust mite (“DM”) stimulant using time course measurements of RH 123 and PI fluorescence. Density plots and histograms were determined for samples containing: control cells only, DHR 123 only, DHR 123+PMA stimulant (positive control), DHR 123+DM stimulant, and DHR 123+3× DM stimulant, following incubation times of 0.5 hours (FIGS. 9A-9J), 1.5 hours (FIGS. 10A-10J), and 2.5 hours (FIGS. 11A-11J), respectively. Propidium iodide staining was used as a measure of cell viability.
# Flow cytometry analysis of human blood samples was performed following exposure to exogenous DM, ragweed pollen (RWP), milk (MLK), cucumber (CUC), and basil (BAS) stimulants using RH 123 and PI fluorescence measurement. Density plots and histograms were determined for samples containing: control cells, DHR 123 only, DHR 123+PMA stimulant, DHR 123+DM stimulant, DHR 123+RWP stimulant (1×: 2.5 μL; 2×: 5.0 μL), DHR 123+MLK stimulant (5 μL), DHR 123+CUC stimulant (5 μL), and DHR 123+BAS stimulant (5 μL), following an incubation times of 0.5, 1.5, and 2.5 hours. See RH 123 (FL1-A) density plots at FIGS. 13A-13H; RH 123 (FL1-A) histograms at FIGS. 14A-14H; propidium iodide (PI) (FL3-A) density plots at FIGS. 15A-15H; PI (FL3-A) histograms at FIGS. 16A-16H).
# DHR 123 and PI flow cytometry blood testing was repeated using increased amounts of stimulant (8 μL of DM stimulant or RWP stimulant per 100 μL blood) and incubated for 2.5 hours.
compound,measurement,setting,value
"CCCCCCCCCCCCCC(=O)O[C@@H]1[C@@H](C)[C@@]2(O)[C@@H](C=C(CO)C[C@]3(O)C(=O)C(C)=C[C@@H]23)[C@@H]2C(C)(C)[C@]12OC(C)=O [PMA, Phorbol-12-Myristate-13-Acetate]",CD16 fluorescence signal intensity over time,"neutrophils; 1-3 hr incubation, DHR 123 and PMA",decreased signal intensity over time
same,expression of CD16 surface marker (in words),neutrophils; 1.5 hours after stimulant exposure,greatly reduced
same,mean fluorescent intensity (MFI) of CD16 surface marker (channel 2; FL2-A),"neutrophils; 1.5 hours exposure, DHR 123 only control MFI=27956",11120
same,MFI (2.5 h) FL3-A,white blood cells; PMA or DM 2 μL/100 μL blood (Table 4),"17,902.33"
same,Mean FL3-A (2.5 h),"white blood cells; PMA, RWP1 2.5 μL, MLK, CUC, BAS 5 μL per 100 μL blood (Table 6)","34,645.62"
same,MFI (2.5 h) FL3-A,"white blood cells; increased stimulant, 8 μL DM or RWP per 100 μL blood (Table 7)","11,914.00"

# Reference: patent publication US20250327794A1, “FLUOROMETRIC METHODS FOR DETECTION OF ALLERGIC SENSITIVITY TO ENVIRONMENTAL, FOODSTUFF, AND MEDICAMENT STIMULANTS” (CELL SCIENCE SYSTEMS CORPORATION, priority 2022, published 2025)
